Literature values in patent US6486186B2, “Thiazole compounds as cyclic AMP-specific phosphodiesterase inhibitors and method of using the same” (ICOS Corporation, priority 1999, dated 2002).

Legend:
[1] = in vivo
[2] = tested on: recombinant human PDE4; details: literature value; read-out: reported IC50 with respect to inhibiting recombinant human PDE4

Row | Structure (SMILES) | emetic potential relative to the (+)-enantiomer (S-rolipram) [1] | IC50 [2] [µM]
1 | COc1ccc([C@@H]2CNC(=O)C2)cc1OC1CCCC1 (single isomer, unassigned) [(−)-enantiomer of rolipram] | about ten-fold more emetic | –
2 | COc1ccc(C2CNC(=O)C2)cc1OC1CCCC1 (stereo not drawn) [Rolipram] | – | ~0.2
3 | COC(=O)N1CC(c2ccc(OC)c(OC3CCCC3)c2)C(C)(C(C)=O)C1 (stereo not drawn) [structural formula (I)] | – | ~0.002
